Measured values reported in publication PMC10415461 (Molecular Diversity, 2022).
In brackets after ≈: the same amount, converted by molar mass. Like-named read-outs stand apart in the source and are kept apart here.

Columns and labels:
E. coli (ATCC 8739) = assay: Antibacterial MIC, standard agar cup diffusion method; assay type: cell-based; conditions: Escherichia coli, ATCC8739, 37 °C, 24 h, read-out: MIC E. coli (Gram-negative)
Method: (§1) The antibacterial and antifungal activities of compounds, ketone 1, 2a-j, and 5a-i were evaluated in vitro against S. aureus (ATCC 6538), P. aeruginosa (ATCC 10,145), E. coli (ATCC 8739), and C. albicans (ATCC 10,231). […] Standard strains of Staphylococcus aureus (ATCC 6538), Pseudomonas aeruginosa (ATCC 10,145), and Escherichia coli (ATCC 8739) were obtained from microbiological resource center, Faculty of Agriculture, Ain Shams University, Cairo, Egypt. All isolates were maintained at -70 °C in Trypticase Soya Broth (TSB, Becton, and Dickinson) with 10% glycerol. Prior to inoculation, all isolates were subcultured at 37 °C for 24 h on Trypticase Soya Agar (TSA, Becton, and Dickinson) and TSB, respectively.
(§2) The plates were rotated slowly to ensure uniform distribution of the microorganisms and then allowed to solidify on a flat surface. After solidification, four equidistant and circular wells of 10 mm diameter were carefully punched using a sterile cork bore. Twofold serial dilutions of the tested compounds using DMSO were performed. An equal volume of 100µL of each dilution was applied separately to each well in three replicates using a micropipette. All plates were incubated at 37 °C for 24 h. The inhibition zones were measured, and their average was calculated.

[1] = test system: P. aeruginosa (ATCC 10,145); assay: as above; assay type: cell-based; conditions: Pseudomonas aeruginosa, ATCC 10145, 37 °C, 24 h, read-out: MIC P. aeruginosa (Gram-negative)
Method: as §1, §2

S. aureus DNA gyrase = S. aureus DNA gyrase (Staphylococcus aureus, UniProt P0A0K8+P20831); assay: Staphylococcus aureus DNA gyrase supercoiling assay; assay type: biochemical; conditions: supercoiling of relaxed pBR322, 37 °C, 30 min; read-out: S. aureus DNA gyrase IC50 ± SD
Method: As antibacterial agents, fluoroquinolones act by targeting and inhibiting DNA gyrase (topo II) which is an essential enzyme involved in the DNA replication process.
Staphylococcus aureus DNA gyrase was incubated at 37 °C for 30 min in a total reaction volume of 30 μl containing 40 mM HEPES. KOH (pH 7.6), 10 mM magnesium acetate, 10 mM DTT, 2 mM ATP, 500 mM potassium glutamate, 0.05 mg/ml albumin and Relaxed pBR322. DNA gyrase supercoiling reactions catalyzed by S. aureus gyrase, Stop reaction by adding 30 μL of STEB and 30 μL of chloroform/isoamyl alcohol (v:v, 24:1),and then Vortex briefly ~ 5 secs and centrifuge for 1 min. after which 20 µL of this was loaded on a 1% agarose gel that was then run at ~ 75 V for approximately 2 h. The gel was stained by (0.5 mg/L) ethidium bromide in water. Fluorescent images were taken at a wavelength of 300 nm on a UV transilluminator imaging system. The fluorescence intensity of the supercoiled plasmid reaction product was quantitated using ImagQuant software (Molecular Dynamics).

[2] = test system: tested bacterial strains (Gram positive or Gram negative: S. aureus, P. aeruginosa, E. coli); assay: Antibacterial MIC range over the tested bacterial strains; assay type: cell-based; conditions: range over Gram positive and Gram negative strains
Method: . Standard strains of Staphylococcus aureus (ATCC 6538), Pseudomonas aeruginosa (ATCC 10,145), and Escherichia coli (ATCC 8739) were obtained from microbiological resource center, Faculty of Agriculture, Ain Shams University, Cairo, Egypt. All isolates were maintained at -70 °C in Trypticase Soya Broth (TSB, Becton, and Dickinson) with 10% glycerol. Prior to inoculation, all isolates were subcultured at 37 °C for 24 h on Trypticase Soya Agar (TSA, Becton, and Dickinson) and TSB, respectively.
as §2, with “calculated. The MIC was calculated by plotting the natural logarithm of the concentration of each dilution of the tested compounds against the square of zones of inhibition, and a regression line was drawn through the points then the antilogarithm of the intercept on the logarithm of concentration axis gave the MIC value.” for “calculated.”

S. aureus (ATCC 6538) = assay: Antibacterial MIC, standard agar cup diffusion method; assay type: cell-based, Staphylococcus aureus; conditions: Staphylococcus aureus, ATCC6538, 37 °C, 24 h, read-out: MIC S. aureus (Gram-positive)
Method: as §1, §2

[3] = test system: C. albicans (ATCC 10,231); assay: Antifungal MIC, agar cup diffusion method; assay type: cell-based, Candida albicans; conditions: Sabouraud agar, 37 °C; for MIC: Candida albicans, ATCC 10,231, 24 h, read-out: MIC C. albicans (Fungi); for MIC C. albicans (Fungi): 24 h
Method: The antibacterial and antifungal activities of compounds, ketone 1, 2a-j, and 5a-i were evaluated in vitro against S. aureus (ATCC 6538), P. aeruginosa (ATCC 10,145), E. coli (ATCC 8739), and C. albicans (ATCC 10,231). […] The antifungal activity of compounds 1, 2a-j, and 5a-i and ketoconazole were determined according to the agar cup diffusion method at Deraya University, Faculty of Pharmacy, Department of Microbiology.
Fungal strains and culture conditions. […] Standard strain of Candida albicans (ATCC 10,231) was obtained from microbiological resource center, Faculty of Agriculture, Ain Shams University, Cairo, Egypt. The isolate was maintained at -70 °C in Trypticase Soya Broth (TSB, Becton, and Dickinson) with 10% glycerol. Prior to inoculation, the isolate was subcultured at 37 °C for 24 h on Trypticase Soya Agar (TSA, Becton, and Dickinson) and TSB, respectively.
as §2

physchem = conditions: pH 7.8
Method: The n-octanol/water apparent partition coefficient at the isoelectric point (or distribution constant) was measured by using the traditional shake-flask technique. The pH of the aqueous buffer was first adjusted to isoelectric point of the compound. The n-octanol and aqueous phases were then mutually saturated before the measurement. […] The samples were agitated for 5h at water bath shaker thermostatized at 25 ± 1^◦C and 100 rpm. The concentration of the solute was determined in the aqueous and organic phases at the isoelectric point by UV spectroscopy the log p value was calculated as follows: […].

[4] = Solubility determination in phosphate buffer; assay type: physicochemical; conditions: aqueous buffer, thermodynamic from solid
Method: A sample of drug was accurately weighed and dissolved in 100 ml of distilled water to prepare 100 mcg/ml stock solutions. Appropriate dilution of the stock solution with phosphate buffer pH 6.8 and 7.8 was then made to prepare a working solution of 40mcg/ml.
After determination of λ max of drug, a calibration curve was constructed by preparing solutions containing different concentrations of (1–5 mcg/ml) from stock solution after appropriate dilution with phosphate buffer pH 6.8. The UV absorbance of the prepared sample solutions were measured at the predetermined λ max using phosphate buffer pH 6.8 as a blank.
Aqueous solubility of the complexes was measured as a function of pH. An excess of each derivative was placed into suitable stoppered containers. […] The samples were immersed in a water bath thermostatized at 37 ± 1^◦C and 100 rpm and periodically shaken for 48 h. Once the equilibrium was reached, the pH of the supernatant was regarded.

[5] = phosphate buffer pH 6.8, 37 °C, read-out: Solubility pH 6.8
[6] = phosphate buffer pH 7.8, 37 °C, read-out: Solubility pH 7.8

Sequence of S. aureus DNA gyrase (P20831 whole entry): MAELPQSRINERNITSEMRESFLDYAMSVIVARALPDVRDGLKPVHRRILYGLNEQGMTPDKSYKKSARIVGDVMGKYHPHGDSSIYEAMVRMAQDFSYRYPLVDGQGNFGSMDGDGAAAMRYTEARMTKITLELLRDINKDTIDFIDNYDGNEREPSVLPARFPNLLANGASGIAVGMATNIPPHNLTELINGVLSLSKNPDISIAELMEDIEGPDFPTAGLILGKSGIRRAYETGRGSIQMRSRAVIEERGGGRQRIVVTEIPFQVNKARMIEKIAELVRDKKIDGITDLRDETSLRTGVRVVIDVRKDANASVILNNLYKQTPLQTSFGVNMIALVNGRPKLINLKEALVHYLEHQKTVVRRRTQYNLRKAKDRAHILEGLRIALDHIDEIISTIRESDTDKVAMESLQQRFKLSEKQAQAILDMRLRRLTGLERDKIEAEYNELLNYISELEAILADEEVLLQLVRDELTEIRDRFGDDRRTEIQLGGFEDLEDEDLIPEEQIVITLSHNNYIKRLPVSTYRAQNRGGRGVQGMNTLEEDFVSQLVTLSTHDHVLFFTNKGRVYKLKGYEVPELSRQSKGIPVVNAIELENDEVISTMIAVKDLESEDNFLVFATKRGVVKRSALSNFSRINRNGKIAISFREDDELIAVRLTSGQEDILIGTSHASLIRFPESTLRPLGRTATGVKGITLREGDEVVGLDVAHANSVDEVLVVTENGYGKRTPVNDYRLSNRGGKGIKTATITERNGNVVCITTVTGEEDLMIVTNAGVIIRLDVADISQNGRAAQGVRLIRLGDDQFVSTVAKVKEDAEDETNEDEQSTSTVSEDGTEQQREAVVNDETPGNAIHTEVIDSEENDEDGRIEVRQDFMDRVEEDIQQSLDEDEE
Sequence of S. aureus DNA gyrase (P0A0K8 whole entry): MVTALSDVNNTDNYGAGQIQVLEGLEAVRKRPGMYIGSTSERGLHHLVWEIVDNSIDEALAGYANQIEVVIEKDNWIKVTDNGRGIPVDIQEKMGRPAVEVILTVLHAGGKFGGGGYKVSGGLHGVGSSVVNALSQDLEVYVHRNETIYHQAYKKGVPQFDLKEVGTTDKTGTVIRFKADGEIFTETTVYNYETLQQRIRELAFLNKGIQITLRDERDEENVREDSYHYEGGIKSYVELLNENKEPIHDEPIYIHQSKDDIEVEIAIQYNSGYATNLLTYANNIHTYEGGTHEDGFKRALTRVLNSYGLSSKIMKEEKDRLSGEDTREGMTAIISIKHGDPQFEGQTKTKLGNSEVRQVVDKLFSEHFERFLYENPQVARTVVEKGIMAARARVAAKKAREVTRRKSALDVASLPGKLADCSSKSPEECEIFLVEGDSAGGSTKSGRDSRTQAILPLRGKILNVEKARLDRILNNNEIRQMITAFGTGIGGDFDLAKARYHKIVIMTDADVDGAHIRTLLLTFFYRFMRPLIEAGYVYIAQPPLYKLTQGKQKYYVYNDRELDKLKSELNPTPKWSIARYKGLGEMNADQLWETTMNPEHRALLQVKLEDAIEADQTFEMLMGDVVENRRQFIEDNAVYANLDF

Row | SMILES | MIC (E. coli (ATCC 8739)) | MIC [1] | melting point | IC50 (S. aureus DNA gyrase) | MIC range against the tested bacterial strains [2] | MIC (S. aureus (ATCC 6538)) | MIC [3] | logD (physchem) | solubility at 48 h [4, 5] | solubility at 48 h [4, 6] | MIC C. albicans (Fungi) [3] | Lipophilicity (log p) (physchem)
1 | COc1cc(-c2nc(SCC(=O)N3CCN(c4cc5c(cc4F)c(=O)c(C(=O)O)cn5C4CC4)CC3)[nH]c(=O)c2C#N)cc(OC)c1OC [Compound 5i, 7-(4-(2-((5-Cyano-6-oxo-4-(3,4,5-trimethoxyphenyl)-1,6-dihydropyrimidin-2-yl)thio)acetyl)piperazin-1-yl)-1-cyclopropyl-6-fluoro-4-oxo-1,4-dihydroquinoline-3-carboxylic acid] | 0.63 µg/mL (≈ 0.912 µM) | 0.13 µg/mL (≈ 0.188 µM) | 284 to 285 °C | 1410 ± 70 nM | 0.06 to 1.53 µg/mL | 0.74 µg/mL (≈ 1.07 µM) | > 100 µg/mL | – | – | – | – | –
2 | O=C(/C=C/c1ccc(Cl)cc1)c1ccc(NC(=O)N2CCN(c3cc4c(cc3F)c(=O)c(C(=O)O)cn4C3CC3)CC2)cc1 [Compound 2c] | 0.34 µg/mL (≈ 0.553 µM) | 1.03 µg/mL (≈ 1.67 µM) | – | 3000 ± 160 nM | 0.06 to 1.53 µg/mL | 0.67 µg/mL (≈ 1.09 µM) | 2.03 to 3.89 µg/mL (≈ 3.3 to 6.32 µM) | 0.07 | 130 µg/mL (≈ 211 µM) | 150 µg/mL (≈ 244 µM) | 3.89 µg/mL (≈ 6.32 µM) | –
3 | O=C(/C=C/c1cccc(Cl)c1)c1ccc(NC(=O)N2CCN(c3cc4c(cc3F)c(=O)c(C(=O)O)cn4C3CC3)CC2)cc1 [Compound 2b] | 0.18 µg/mL (≈ 0.293 µM) | 0.64 µg/mL (≈ 1.04 µM) | – | 231 ± 10 nM | 0.06 to 1.53 µg/mL | 0.06 µg/mL (≈ 0.0976 µM) | 15.2 µg/mL (≈ 24.8 µM) | 0.31 | 160 µg/mL (≈ 260 µM) | 180 µg/mL (≈ 293 µM) | – | –
4 | COc1ccc(-c2nc(SCC(=O)N3CCN(c4cc5c(cc4F)c(=O)c(C(=O)O)cn5C4CC4)CC3)[nH]c(=O)c2C#N)cc1OC [Compound 5h, 7-(4-(2-((5-Cyano-4-(3,4-dimethoxyphenyl)-6-oxo-1,6-dihydropyrimidin-2-yl)thio)acetyl)piperazin-1-yl)-1-cyclopropyl-6-fluoro-4-oxo-1,4-dihydroquinoline-3-carboxylic acid] | 0.21 µg/mL (≈ 0.318 µM) | 0.49 µg/mL (≈ 0.742 µM) | 266 to 269 °C | 1460 ± 80 nM | 0.06 to 1.53 µg/mL | 0.34 µg/mL (≈ 0.515 µM) | 28.7 µg/mL (≈ 43.5 µM) | – | – | – | – | –
5 | O=C(O)c1cn(C2CC2)c2cc(N3CCNCC3)c(F)cc2c1=O [Ciprofloxacin, reference compound] | 0.15 µg/mL (≈ 0.453 µM) | 0.22 µg/mL (≈ 0.664 µM) | – | – | 0.15 to 3.25 µg/mL | 3.25 µg/mL (≈ 9.81 µM) | – | – | – | – | – | –
6 | N#Cc1c(-c2cccc(Cl)c2)nc(SCC(=O)N2CCN(c3cc4c(cc3F)c(=O)c(C(=O)O)cn4C3CC3)CC2)[nH]c1=O [Compound 5b, 7-(4-(2-((4-(3-Chlorophenyl)-5-cyano-6-oxo-1,6-dihydropyrimidin-2-yl)thio)acetyl)piperazin-1-yl)-1-cyclopropyl-6-fluoro-4-oxo-1,4-dihydroquinoline-3-carboxylic acid] | 0.12 µg/mL (≈ 0.189 µM) | 0.19 µg/mL (≈ 0.299 µM) | 248 to 251 °C | 1270 ± 70 nM | 0.06 to 1.53 µg/mL | 0.7 µg/mL (≈ 1.1 µM) | > 100 µg/mL | – | – | – | – | –
7 | COc1ccc(-c2nc(SCC(=O)N3CCN(c4cc5c(cc4F)c(=O)c(C(=O)O)cn5C4CC4)CC3)[nH]c(=O)c2C#N)cc1 [Compound 5g, 7-(4-(2-((5-Cyano-4-(4-methoxyphenyl)-6-oxo-1,6-dihydropyrimidin-2-yl)thio)acetyl)piperazin-1-yl)-1-cyclopropyl-6-fluoro-4-oxo-1,4-dihydroquinoline-3-carboxylic acid] | 14.2 µg/mL (≈ 22.6 µM) | 23.1 µg/mL (≈ 36.7 µM) | 239 to 242 °C | 7590 ± 400 nM | – | 0.28 µg/mL (≈ 0.444 µM) | > 100 µg/mL | – | 740 µg/mL (≈ 1170 µM) | 900 µg/mL (≈ 1430 µM) | – | − 0.09
8 | N#Cc1c(-c2ccc(Cl)cc2)nc(SCC(=O)N2CCN(c3cc4c(cc3F)c(=O)c(C(=O)O)cn4C3CC3)CC2)[nH]c1=O [Compound 5c, 7-(4-(2-((4-(4-Chlorophenyl)-5-cyano-6-oxo-1,6-dihydropyrimidin-2-yl)thio)acetyl)piperazin-1-yl)-1-cyclopropyl-6-fluoro-4-oxo-1,4-dihydroquinoline-3-carboxylic acid] | 1.03 µg/mL (≈ 1.62 µM) | 2.04 µg/mL (≈ 3.21 µM) | 253 to 256 °C | 1570 ± 80 nM | – | 0.58 µg/mL (≈ 0.913 µM) | 2.03 to 3.89 µg/mL (≈ 3.2 to 6.13 µM) | – | – | – | 2.87 µg/mL (≈ 4.52 µM) | –
